Results published in patent US11873298B2, “Compounds and uses thereof” (JANSSEN PHARMACEUTICA NV, priority 2017, dated 2024).

Legend:
Format in all cases: cell-based
SCD5 = molecular target: T1, SCD5 (Homo sapiens, UniProt Q86SK9); assay: Growth inhibition of humanized yeast strain expressing SCD5 as sole desaturase; conditions: for half-maximal inhibitory concentration (IC50): SCD5 humanized strain, FIG. 6; for IC50 / SCD5 % Max Inhibition: humanized yeast strain expressing SCD5
T1 construct: host or cells: S. cerevisiae ole1Δ strain (W303 pdr1Δ pdr3Δ background), plasmid pRS316 with TDH3 promoter and CYC1 terminator
T1 sequence (Q86SK9 1-330): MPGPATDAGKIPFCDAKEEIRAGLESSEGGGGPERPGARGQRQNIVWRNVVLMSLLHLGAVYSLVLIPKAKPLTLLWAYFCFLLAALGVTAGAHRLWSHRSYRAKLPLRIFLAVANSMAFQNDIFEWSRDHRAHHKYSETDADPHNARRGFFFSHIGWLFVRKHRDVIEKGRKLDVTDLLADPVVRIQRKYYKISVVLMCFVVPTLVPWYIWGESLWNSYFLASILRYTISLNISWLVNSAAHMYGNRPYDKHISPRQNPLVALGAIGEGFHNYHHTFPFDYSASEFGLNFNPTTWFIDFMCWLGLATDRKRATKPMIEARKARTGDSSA
Procedure, shortened: (§1)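 Plasmid-complemented ole1Δ yeast, drug-pump deleted (pdr1Δ pdr3Δ), depend solely on the introduced Ole1, SCD1 or SCD5 desaturase. Compounds are added from DMSO to cells in uracil-free galactose medium, 2× density 0.02, and OD600 is read after 24 h or 40 h respectively.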

SCD1 = molecular target: T2, SCD1 (Homo sapiens, UniProt O00767); assay: Growth inhibition of humanized yeast strain expressing SCD1 as sole desaturase; conditions: for IC50 / SCD1 % Max Inhibition: humanized yeast strain expressing SCD1
T2 construct: host or cells: S. cerevisiae ole1Δ strain (W303 pdr1Δ pdr3Δ background), plasmid pRS316 with TDH3 promoter and CYC1 terminator
T2 sequence (O00767 1-359): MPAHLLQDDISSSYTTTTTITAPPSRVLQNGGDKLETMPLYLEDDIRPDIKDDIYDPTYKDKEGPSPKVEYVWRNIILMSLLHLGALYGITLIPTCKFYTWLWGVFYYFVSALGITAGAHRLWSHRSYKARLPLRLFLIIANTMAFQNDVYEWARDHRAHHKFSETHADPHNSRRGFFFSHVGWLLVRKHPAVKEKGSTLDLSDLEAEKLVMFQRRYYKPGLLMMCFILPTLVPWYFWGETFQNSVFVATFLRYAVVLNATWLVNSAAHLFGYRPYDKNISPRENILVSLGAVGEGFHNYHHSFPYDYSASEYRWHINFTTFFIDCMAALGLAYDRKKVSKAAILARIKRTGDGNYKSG
Procedure, shortened: as §1

Ole1 = molecular target: T3, Ole1 (Saccharomyces cerevisiae, UniProt P21147); assay: Growth inhibition of yeast strain expressing Ole1 as sole desaturase; conditions: for growth of yeast expressing OLE1 in presence of inhibitor: FIG. 6; for IC50 / OLE1 % Max Inhibition: yeast strain expressing Ole1 as sole desaturase
T3 construct: expressed in transfected cells; host or cells: S. cerevisiae ole1Δ strain (W303 pdr1Δ pdr3Δ background), plasmid pRS316 with TDH3 promoter and CYC1 terminator
T3 sequence (P21147 1-510): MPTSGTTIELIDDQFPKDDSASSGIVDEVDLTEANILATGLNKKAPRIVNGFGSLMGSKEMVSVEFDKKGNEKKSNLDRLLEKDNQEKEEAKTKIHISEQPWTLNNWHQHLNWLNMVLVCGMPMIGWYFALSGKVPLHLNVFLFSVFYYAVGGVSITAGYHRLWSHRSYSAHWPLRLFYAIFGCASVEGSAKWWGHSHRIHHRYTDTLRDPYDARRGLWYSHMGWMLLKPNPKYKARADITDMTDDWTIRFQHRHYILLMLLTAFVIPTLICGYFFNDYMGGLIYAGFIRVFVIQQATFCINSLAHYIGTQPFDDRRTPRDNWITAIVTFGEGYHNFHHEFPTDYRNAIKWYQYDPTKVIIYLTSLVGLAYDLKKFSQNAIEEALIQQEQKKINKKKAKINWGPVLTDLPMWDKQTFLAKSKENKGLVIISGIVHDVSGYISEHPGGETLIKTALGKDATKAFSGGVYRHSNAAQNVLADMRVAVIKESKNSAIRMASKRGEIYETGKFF
Experimental: Strain oleΔ (yeast ole1 deletion mutant) was constructed by deleting OLE1 with NAT-MX6 in BY4741, amplifying the deletion cassette from the genomic DNA of the resulting strain with primers flanking the ORF by 1000 bp upstream and downstream, transforming the resulting deletion cassette into W303 pdr1Δ pdr3Δ, and plating transformants on YPD media containing G418 (200 μg/mL) and nourseothricin ([…]) with 0.01% TWEEN®-20 and 0.5 mM oleic and palmitoleic acids.
The coding sequence of yeast OLE1 was also cloned into this plasmid). These clones were then transformed into the ole1Δ strain and plated on CSM-Ura media (CSM lacking uracil) with 2% glucose (w/v) and independent colonies were isolated and amplified.
All compound profiling experiments were performed using the same basic protocol. Different genetic backgrounds (e.g., gene deletions) or conditions (e.g., addition of oleic and palmitoleic acid) were replaced as indicated below.
Yeast were cultured using standard techniques in complete synthetic media (CSM) and yeast nitrogen base supplemented with 2% (w/v) carbon source (glucose, raffinose, or galactose) to regulate the expression of the toxic disease protein. An initial starter culture was inoculated in 3 mL CSM-Glucose media and incubated overnight in a 30° C. shaker incubator (225 rpm). Saturated morning cultures were then diluted 1:20 in fresh CSM-Raffinose media and grown for 6 h to an OD600 (optical density) of ˜0.4-0.8 at 30° C. with shaking.
Compound administration was performed in two separate steps. First, 15 μL of CSM-Galactose (induces expression of toxic protein) was dispensed into clear 384 well assay plates using a MULTIDROP™ Combi reagent dispenser. […] The cultures described above were then diluted to a 2× concentration (0.03 and 0.08 for alpha-synuclein and ApoE, final ODsoo of 0.015 and 0.04) in CSM-Galactose. For wild-type and Ole1/SCD1/SCD5 plasmid-containing strains, the 2× cell density was 0.02. […] For 96-well assays (FIGS. 1A and 1B), compound dilutions in DMSO were generated in 96 well plates and 1 μL was manually pipetted into 96 well clear bottom assay plates.
For experiments using a plasmid-borne copy of Ole1, SCD1, or SCD5 (FIGS. 3B, 6, and 7), media lacking uracil (SX-Ura, where X is glucose, raffinose, or galactose), was used for all steps of the compound profiling protocol to ensure its maintenance throughout the assay.
After yeast delivery, assay plates were incubated under humidified conditions at 30° C. for 24 to 40 h. ApoE4 rescue experiments were stopped at 24 h, aSyn experiments at 40 h, Ole1 at 24 h, and SCD1/SCD5 at 40 h. The growth of yeast was monitored by reading the ODsoo of each well using a microplate reader (Perkin Elmer EnVision™).

Row | SMILES | half-maximal inhibitory concentration (IC50) (SCD5) | half-maximal inhibitory concentration (IC50) (SCD1; SCD1 humanized strain, FIG. 6) | growth of yeast expressing OLE1 in presence of inhibitor (Ole1) | IC50 (SCD5) [µM] | IC50 (SCD1) [µM] | IC50 (Ole1) [µM] | SCD5 % Max Inhibition (SCD5) [%] | SCD1 % Max Inhibition (SCD1) [%] | OLE1 % Max Inhibition (Ole1) [%]
1 | Cc1nnc(-c2ccc(N3CCC(Oc4cc(F)ccc4Cl)CC3)nn2)o1 [CAY10566, reference compound] | low nanomolar | low nanomolar | resistant |  |  |  |  |  | 
2 | O=C(C1CCN(c2nc(-c3ccccc3)no2)CC1)N1CCOCC1 [Compound 5] |  |  |  | 24.5 | > 45 | > 45 |  |  | 
3 | COc1ccc(-c2noc(C3CCN(C(=O)CNCc4ccccc4)CC3)n2)cc1OC [Compound 30] |  |  |  | > 45 | > 45 | > 45 | 74.17 | 80.58 | 100.46
4 | COc1ccc(-c2noc(C3CCN(C(=O)CN)CC3)n2)cc1OC [Compound 75] |  |  |  | 30 | > 45 | > 45 |  |  | 
5 | Cc1nn(C)c2cc(-c3noc(C4CCN(C(=O)C5CNC(=O)C5)CC4)n3)ccc12 (stereo not shown) [Compound 126] |  |  |  | 30 | > 45 | > 45 | 79.08 | 69.80 | 73.29
6 | CCN(Cc1nc(-c2ccccc2)no1)C(=O)Cc1cccc2ccccc12 [Compound 156] |  |  |  | > 45 | > 45 | 37.1 | 22.37 | 72.58 | 63.63
7 | CCN(Cc1nc(-c2ccc(OC)c(OC)c2)no1)C(=O)Cc1cccc2ccccc12 [Compound 157] |  |  |  | > 45 | > 45 | > 45 | 72.54 | 80.54 | 91.55
8 | CCN1C(=O)COc2ccc(-c3nc(C4(c5ccc(OC)cc5)CC4)no3)cc21 [Compound 158] |  |  |  | > 45 | > 45 | > 45 | 91.96 | 78.34 | 89.93
9 | CCN1C(=O)COc2ccc(-c3nc(C4(c5ccccc5)CC4)no3)cc21 [Compound 159] |  |  |  | 13.9 | 38.9 | > 45 | 10.25 | 70.17 | 46.92
10 | CCN1C(=O)COc2ccc(-c3nc(C(C)c4ccccc4)no3)cc21 (stereo not shown) [Compound 160] |  |  |  | 24.3 | 40.7 | 36.2 | 28.51 | 63.44 | 71.55
11 | Cn1c(=O)[nH]c2ccc(-c3noc(C4CCN(C(=O)CNC(=O)c5ccccc5)CC4)n3)cc21 [Compound 162] |  |  |  | > 45 | > 45 | > 45 | 76.89 | 84.54 | 100.35
12 | O=C(NCC(=O)N1CCC(c2nc(-c3ccc4nonc4c3)no2)CC1)c1ccccc1 [Compound 163] |  |  |  | > 45 | 36.5 | > 45 | 24.77 | 55.99 | 71.84
13 | O=C(C1CC(=O)N(c2ccccc2)C1)N1CCC(c2nc(-c3ccc4nonc4c3)no2)CC1 (stereo not shown) [Compound 164] |  |  |  | > 45 | > 45 | > 45 | 73.90 | 102.20 | 96.96
14 | Cc1nn(C)c2cc(-c3noc(C4CCN(C(=O)CN5Cc6ccccc6C5=O)CC4)n3)ccc12 [Compound 165] |  |  |  | > 45 | > 45 | > 45 | 80.23 | 94.44 | 2.01
15 | CCOc1cnc(-c2noc(C3CCN(C(=O)CNC(=O)c4ccccc4)CC3)n2)nc1OC [Compound 166] |  |  |  | > 45 | > 45 | > 45 | 68.87 | 90.07 | 105.73
16 | CC(C)n1ncc2ccc(-c3noc(C4CCN(C(=O)c5cccc(F)c5)CC4)n3)cc21 [Compound 344] |  |  |  | > 45 |  | > 45 | 1.1 |  | 7.14
17 | CC(C)n1ncc2ccc(-c3noc(C4CCN(C(=O)c5ccccc5Cl)CC4)n3)cc21 [Compound 345] |  |  |  | > 45 |  | > 45 | 2.2 |  | 6.63
18 | CC(C)n1ncc2ccc(-c3noc(C4CCN(C(=O)c5ccccc5)CC4)n3)cc21 [Compound 346] |  |  |  | > 45 |  | > 45 | 1.1 |  | 12.12
19 | O=C(C1CC(=O)N(c2cccc(Cl)c2)C1)N1CCC(c2nc(Cl)no2)CC1 (stereo not shown) [Compound 348] |  |  |  |  |  | > 45 | 59.2 |  | 74.78
20 | CC(C)n1ncc2ccc(-c3noc(N4CCN(C(=O)OC(C)(C)C)CC4)n3)cc21 [Compound 349] |  |  |  | > 45 |  | > 45 | 0.2 |  | 84.00
21 | N#Cc1cccc(N2CC(C(=O)N3CCC(c4nc(Cl)no4)CC3)CC2=O)c1 (stereo not shown) [Compound 350] |  |  |  |  |  | > 45 | 56.3 |  | 71.00
22 | O=C(c1ccccc1)N1CCC(c2nc(Cl)no2)CC1 [Compound 351] |  |  |  |  |  | > 45 | 57.3 |  | 68.60
23 | CC(C)c1ccc(C(=O)N2CCC(c3nc(Cl)no3)CC2)cc1 [Compound 352] |  |  |  | > 45 |  | > 45 | 44.5 |  | 71.57
24 | O=C(O)Cn1nnc(-c2cc(N3CCC(Oc4cc(F)ccc4Br)CC3)no2)n1 [MK-8245, reference compound] | low nanomolar |  | resistant |  |  |  |  |  | 
